Usually IC50 stands for the concentration that inhibits the measured activity by half.

This note sets out measurements from patent publication US7459585B2, “Benzene derivatives and pharmaceutical use thereof” (Ajinomoto Co., Inc., priority 1998, dated 2008).

Molecules are shown by their SMILES. ≈ marks a conversion by molar mass, not a printed value. Some results are limits rather than exact numbers.

This experiment relates to NF-kappa B. Description: Evaluation of NF-kappa B inhibition (β-gal reporter, IL-1β-induced). It counts as cell-based. The settings on record: Homo sapiens; β-gal reporter with NF-kappa B binding motif in SV40 large T-immortalized HUVEC; induced with 1 ng/ml IL-1β; read-out: NF-kB inhibiting activity IC50. The method, then: Cells used for the tests were those prepared by stably introducing E. coli β-galactosidase (β-gal) genes driven by SV 40 minimum promoter fused with 4 tandems of the AP-1 binding motif derived from human MMP-1 gene enhancer into human normal umbilical cord vein endothelial cells (HUVEC) immortalized with SV 40 large T antigen. The cells were subcultured in RPMI medium containing 10% of FBS, and were seeded on a 96-well plate in a concentration of 1×10^4/well on a day before the start of the experiments. A compound of the present invention was dissolved in DMSO to obtain a solution of a proper concentration, which was added into the 96-well plate so that the final DMSO concentration would be not higher than 1%. 30 minutes after the addition of the compound, phorbol-12-myristate-13-acetate (PMA) was added to each well so as to obtain the final concentration of 50 ng/ml. β-gal activity was determined 16 hours after with a chemiluminescent substrate (Galacton-Light-Plus: Boehringer Mannheim) according to a protocol attached to the reagent. A Luminescence detector (ATTO) was used for the determination.
The tests were carried out in the same manner as that of Example 56. Concretely, the AP-1 binding motif of the reporter genes in Example 56 was replaced with the NF-kappa B binding motif derived from immunoglobulin kappa light chain enhancer, and NF-kappa B transcriptional activity was induced with 1 ng/ml of IL-1β in place of PMA.
Consider `CC1(C)CC1C(=O)Nc1ccc(Cc2ccc(NC(=O)C3CC3(Cl)Cl)cc2)cc1` (centres unmarked) [Compound 23], for which the IC50 came to 0.1 µg/mL (≈ 0.232 µM).

For `COc1ccc(CCCNc2ccc(Cc3ccc(NC(=O)C4CC4(C)C)cc3)cc2)cc1` (centres unmarked) [Compound 28], the IC50 amounted to 0.1 µg/mL (≈ 0.226 µM).

In the case of `CC(=O)NC(c1ccc(NC(=O)C2CC2(C)C)cc1)c1ccc(NC(=O)C2CC2(C)C)cc1` (centres unmarked) [Compound 10], the IC50 was more than 5 µg/mL.

Take `CC1(C)CC1C(=O)Nc1ccc(Nc2ccc(NC(=O)C3CC3(C)C)cc2)cc1` (centres unmarked) [Compound 3]: the IC50 came to 1 µg/mL (≈ 2.55 µM).

In the case of `CN(C)c1ccc(CC(=O)Nc2ccc(Cc3ccc(NC(=O)C4CC4(C)C)cc3)cc2)cc1` (centres unmarked) [Compound 25], the IC50 turned out to be 0.03 µg/mL (≈ 0.0658 µM).

As for `CC1(C)C[C@@H]1C(=O)Nc1ccc(C(O)c2ccc(NC(=O)[C@@H]3CC3(C)C)cc2)cc1` (some centres unmarked) [Compound 34], the IC50 came out at 0.06 µg/mL (≈ 0.148 µM).

For `CC1(C)C[C@H]1C(=O)Nc1ccc(C(O)c2ccc(NC(=O)[C@@H]3CC3(C)C)cc2)cc1` [Compound 35], the concentration for half-maximal inhibition (IC50) was more than 5 µg/mL.

As for `CC1(C)CC1C(=O)Nc1ccc(C(CC(=O)O)c2ccc(NC(=O)C3CC3(C)C)cc2)cc1` (centres unmarked) [Compound 20], the IC50 stood at 3 µg/mL (≈ 6.69 µM).

For the compound `CC1(C)CC1C(=O)Nc1ccc(S(=O)(=O)c2ccc(NC(=O)C3CC3(C)C)cc2)cc1` (centres unmarked) [Compound 5], the IC50 was more than 5 µg/mL.

Regarding `CC1(C)CC1C(=O)Nc1ccc(C(CN=[N+]=[N-])c2ccc(NC(=O)C3CC3(C)C)cc2)cc1` (centres unmarked) [Compound 17], the IC50 was found to be 2.5 µg/mL (≈ 5.61 µM).

Consider `CC1(C)CC1C(=O)Nc1ccc(Oc2ccc(NC(=O)C3CC3(C)C)cc2)cc1` (centres unmarked) [Compound 4], for which the IC50 was determined as 1.1 µg/mL (≈ 2.8 µM).

Consider `CC1(C)CC1C(=O)Nc1ccc(C(O)c2ccc(NC(=O)C3CC3(C)C)cc2)cc1` (centres unmarked) [Compound 11], for which the IC50 is 0.12 µg/mL (≈ 0.295 µM).

Consider `COc1ccc(CCNc2ccc(Cc3ccc(NC(=O)C4CC4(C)C)cc3)cc2)cc1` (centres unmarked) [Compound 27], for which the IC50 turned out to be 0.1 µg/mL (≈ 0.233 µM).

For `CC1(C)CC1C(=O)Nc1ccc(CCc2ccc(NC(=O)C3CC3(C)C)cc2)cc1` (centres unmarked) [Compound 6], the IC50 worked out at 0.37 µg/mL (≈ 0.915 µM).

Regarding `COc1ccc(CC(=O)Nc2ccc(Cc3ccc(NC(=O)C4CC4(C)C)cc3)cc2)cc1` (centres unmarked) [Compound 24], the IC50 was determined as 0.1 µg/mL (≈ 0.226 µM).

Consider `CC1(C)CC1C(=O)Nc1ccc(Sc2ccc(NC(=O)C3CC3(C)C)cc2)cc1` (centres unmarked) [Compound 2], for which the IC50 amounted to 0.1 µg/mL (≈ 0.245 µM).

On to `CC1(C)CC1C(=O)Nc1ccc(COc2ccc(NC(=O)C3CC3(C)C)cc2)cc1` (centres unmarked) [Compound 51], for which the IC50 was found to be 1 µg/mL (≈ 2.46 µM).

For `CC1(C)CC1C(=O)Nc1ccc(C(N)c2ccc(NC(=O)C3CC3(C)C)cc2)cc1` (centres unmarked) [Compound 9], the IC50 turned out to be 2.5 µg/mL (≈ 6.16 µM).

For the compound `CC1(C)CC1C(=O)Nc1ccc(Cc2ccc(N3C(=O)C4C5C=CC(C5)C4C3=O)cc2)cc1` (centres unmarked) [Compound 40], the IC50 came out at 1 µg/mL (≈ 2.27 µM).

For `CC1(C)CC1C(=O)Nc1ccc(Cc2cccc(NC(=O)C3CC3(C)C)c2)cc1` (centres unmarked) [Compound 7], the IC50 is 0.37 µg/mL (≈ 0.947 µM).

Take `COc1ccc(CCC(=O)Nc2ccc(Cc3ccc(NC(=O)C4CC4(C)C)cc3)cc2)cc1` (centres unmarked) [Compound 26]: the IC50 came to 0.1 µg/mL (≈ 0.219 µM).

Take `COC(c1ccc(NC(=O)C2CC2(C)C)cc1)c1ccc(NC(=O)C2CC2(C)C)cc1` (centres unmarked) [Compound 12]: the IC50 was more than 5 µg/mL.

Consider `CC1(C)CC1C(=O)Nc1ccc(Cc2ccc(NC(=O)C3CCCN3)cc2)cc1` (centres unmarked) [Compound 43], for which the IC50 was determined as 0.1 µg/mL (≈ 0.255 µM).

Regarding `CC1(C)CC1C(=O)Nc1ccc(CSc2ccc(NC(=O)C3CC3(C)C)cc2)cc1` (centres unmarked) [Compound 52], the IC50 was 0.2 µg/mL (≈ 0.473 µM).

As to `Cc1cc(Cc2ccc(NC(=O)C3CC3(C)C)c(C)c2)ccc1NC(=O)C1CC1(C)C` (centres unmarked) [Compound 38], the IC50 was 0.5 µg/mL (≈ 1.19 µM).

For the compound `CC1(C)CC1C(=O)Nc1ccc(C(=O)c2ccc(NC(=O)C3CC3(C)C)cc2)cc1` (centres unmarked) [Compound 1], the IC50 is more than 5 µg/mL.

For the compound `CC1(C)CC1C(=O)Nc1ccc(C(CC#N)c2ccc(NC(=O)C3CC3(C)C)cc2)cc1` (centres unmarked) [Compound 19], the IC50 was 1.2 µg/mL (≈ 2.79 µM).

Consider `CC1(C)CC1C(=O)Nc1ccc(C(O)c2ccc(NC(=O)Cc3ccc(Cl)cc3)cc2)cc1` (centres unmarked) [Compound 44], for which the half-inhibitory concentration (IC50) came out at 1.5 µg/mL (≈ 3.24 µM).

`COc1ccc(CCCC(=O)Nc2ccc(Cc3ccc(NC(=O)C4CC4(C)C)cc3)cc2)cc1` (centres unmarked) [Compound 55]: the IC50 was 0.1 µg/mL (≈ 0.212 µM).

Turning to `CC1(C)CC1C(=O)Nc1ccc(C(CN)c2ccc(NC(=O)C3CC3(C)C)cc2)cc1` (centres unmarked) [Compound 18], the IC50 worked out at 3 µg/mL (≈ 7.15 µM).

On to `CC1(C)CC1C(=O)Nc1ccc(C(=NO)c2ccc(NC(=O)C3CC3(C)C)cc2)cc1` (centres unmarked) [Compound 8], for which the IC50 turned out to be 5 µg/mL (≈ 11.9 µM).

For `COc1ccc(CC(=O)Nc2ccc(C(O)c3ccc(NC(=O)C4CC4(C)C)cc3)cc2)cc1` (centres unmarked) [Compound 45], the IC50 was found to be 0.9 µg/mL (≈ 1.96 µM).
